Measured values reported in ChEMBL document CHEMBL3243958, “Bufotenine esters” (J Med Chem, 1979).

What was measured:
[1] = Chemical stability of the compound assessed as ester hydrolysis in Tyrode's solution at 37 degC for 10 to 15 mins; type: physicochemical; settings: read-out: Drug metabolism
[2] = Stability in Sprague-Dawley rat stomach fundus strip assessed as hydrolysis; type: ADME, tissue-based; settings: read-out: Drug metabolism
[3] = biological target: Serotonin 1 (5-HT1) receptor (Rattus norvegicus, UniProt P28564+P30940+P19327+P28565); assay: Antagonist activity at 5-HT1 receptor in Sprague-Dawley rat assessed as inhibition of 5-HT-induced stomach fundus contraction
[4] = Chloroform to aqueous buffer partition coefficient, log P of the compound at pH 7.4 by shake flask method; type: physicochemical

SMILES	degraded [1]	metabolised [2]	pA2 [3]	logP [4]
CC(C)C(=O)Oc1ccc2[nH]cc(CCN(C)C)c2c1	1%	15%	–	–
CN(C)CCc1c[nH]c2ccc(OC(=O)C(C)(C)C)cc12	1%	15%	–	–
CCCC(=O)Oc1ccc2[nH]cc(CCN(C)C)c2c1.O=C(O)C(=O)O	5%	15%	7.32	–
CN(C)CCc1c[nH]c2ccc(O)cc12 [BUFOTENINE]	–	–	7.41	0.06
CCC(=O)Oc1ccc2[nH]cc(CCN(C)C)c2c1.O=C(O)C(=O)O	5%	15%	–	5.6
CN(C)CCc1c[nH]c2ccccc12	–	–	6	2.61
COc1ccc2[nH]cc(CCN(C)C)c2c1 [MEBUFOTENIN]	–	–	–	3.3
CC(=O)Oc1ccc2[nH]cc(CCN(C)C)c2c1.O=C(O)C(=O)O	5%	< 5%	7.71	2.31
